{"source": "patent US9518018B2", "about": "“3-alkoxy, thioalkyl and amino-4-amino-6-(substituted)picolinates and their use as herbicides” (Dow AgroSciences LLC, priority 2011, dated 2016)", "key": {"[1]": {"test_system": "ABUTH: velvetleaf (Abutilon theophrasti)", "test": "Post-Emergent Test I herbicidal activity", "type": "in vivo", "method_in_brief": "(§1)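 Plants grown in greenhouse to first/second true leaf. Compound formulated in acetone:DMSO 97:3 then diluted into crop-oil/surfactant aqueous mix; serial twofold rates. Sprayed at 187 L/ha, 43 cm above canopy; solvent-blank controls. Scored visually at 14 d; probit fit for GR values.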"}, "[2]": {"test_system": "ECHCG: barnyardgrass (Echinochloa crus-galli)", "test": "Post-Emergent Test I herbicidal activity", "type": "in vivo", "conditions": "post-emergence, 336 h, Table 3, 140 g ai/ha, read-out: Visual Growth Reduction (%)-14 Days after Application ECHCG", "method_in_brief": "(§2)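 Greenhouse plants at first-second true leaf stage sprayed post-emergence by track sprayer at 187 L/ha with compound in acetone/DMSO/water/isopropanol carrier with crop oil concentrate and Triton X-155, top rate plus ½× to 1/16× serial rates. Injury scored visually at 14 d, 0-100% versus untreated plants; GR20, GR50, GR80 from probit analysis.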"}, "[3]": {"test_system": "CYPES: yellow nutsedge (Cyperus esculentus)", "test": "Post-Emergent Test I herbicidal activity", "type": "in vivo", "conditions": "post-emergence, 336 h, Table 3, 140 g ai/ha, read-out: Visual Growth Reduction (%)-14 Days after Application CYPES", "method_in_brief": "as §1"}, "[4]": {"test_system": "ORYSA: rice (Oryza sativa)", "test": "Post-Emergent Test I herbicidal activity", "type": "in vivo", "conditions": "post-emergence, 336 h, Table 3, 140 g ai/ha, read-out: Visual Growth Reduction (%)-14 Days after Application ORYSA", "method_in_brief": "as §2"}, "[5]": {"test_system": "CHEAL: lambsquarters (Chenopodium album)", "test": "Post-Emergent Test I herbicidal activity", "type": "in vivo", "method_in_brief": "as §1"}, "[6]": {"test_system": "EPHHL: wild poinsettia (Euphorbia heterophylla)", "test": "Post-Emergent Test I herbicidal activity", "type": "in vivo", "conditions": "post-emergence, 336 h, Table 3, 140 g ai/ha, read-out: Visual Growth Reduction (%)-14 Days after Application EPHHL", "method_in_brief": "as §1"}, "[7]": {"test_system": "ZEAMX: corn (Zea mays)", "test": "Post-Emergent Test I herbicidal activity", "type": "in vivo", "method_in_brief": "as §1"}, "[8]": {"conditions": "Table 4, growth reduction of 20% of plant growth, 14 days after application, probit analysis"}, "[9]": {"conditions": "Table 4, growth reduction of 50% of plant growth, 14 days after application, probit analysis"}, "[10]": {"conditions": "Table 4, growth reduction of 80% of plant growth, 14 days after application, probit analysis"}}, "note": "Read-outs that look alike come from different tables or passages of the source.", "data": [{"smiles": "COc1c(C(=O)O)nc(-c2ccc(Cl)c(OC)c2F)c(F)c1N", "note": "[Compound 45, 4-amino-6-(4-chloro-2-fluoro-3-methoxyphenyl)-5-fluoro-3-methoxypicolinic acid]", "values": [{"measurement": "pest or weed control at 140 g/ha", "setting": "[1]; Abutilon theophrasti, post-emergence, 336 h, Table 3, 140 g ai/ha, read-out: Visual Growth Reduction (%)-14 Days after Application ABUTH", "value": 100, "unit": "%"}, {"measurement": "pest or weed control at 8.75 g/ha", "setting": "[1]; Abutilon theophrasti, post-emergence, 336 h, Table 4, 8.75 g ai/ha, read-out: Visual Growth Reduction (%)-14 Days after Application ABUTH", "value": 90, "unit": "%"}, {"measurement": "pest or weed control at 17.5 g/ha", "setting": "[1]; Abutilon theophrasti, post-emergence, 336 h, Table 4, 17.5 g ai/ha, read-out: Visual Growth Reduction (%)-14 Days after Application ABUTH", "value": 100, "unit": "%"}, {"measurement": "pest or weed control at 35 g/ha", "setting": "[1]; Abutilon theophrasti, post-emergence, 336 h, Table 4, 35 g ai/ha, read-out: Visual Growth Reduction (%)-14 Days after Application ABUTH", "value": 100, "unit": "%"}, {"measurement": "pest or weed control at 70 g/ha", "setting": "[1]; Abutilon theophrasti, post-emergence, 336 h, Table 4, 70 g ai/ha, read-out: Visual Growth Reduction (%)-14 Days after Application ABUTH", "value": 100, "unit": "%"}, {"measurement": "pest or weed control at 140 g/ha", "setting": "[1]; Abutilon theophrasti, post-emergence, 336 h, Table 4, 140 g ai/ha, read-out: Visual Growth Reduction (%)-14 Days after Application ABUTH", "value": 100, "unit": "%"}, {"measurement": "GR20 ABUTH", "setting": "[1]; [8]", "value": "<8.75", "unit": "g ai/ha"}, {"measurement": "GR50 ABUTH", "setting": "[1]; [9]", "value": "<8.75", "unit": "g ai/ha"}, {"measurement": "GR80 ABUTH", "setting": "[1]; [10]", "value": "<8.75", "unit": "g ai/ha"}, {"measurement": "pest or weed control at 140 g/ha", "setting": "[2]", "value": 100, "unit": "%"}, {"measurement": "pest or weed control at 140 g/ha", "setting": "[3]", "value": 100, "unit": "%"}, {"measurement": "pest or weed control at 140 g/ha", "setting": "[4]", "value": 0, "unit": "%"}, {"measurement": "pest or weed control at 140 g/ha", "setting": "[5]; Chenopodium album, post-emergence, 336 h, Table 3, 140 g ai/ha, read-out: Visual Growth Reduction (%)-14 Days after Application CHEAL", "value": 100, "unit": "%"}, {"measurement": "pest or weed control at 8.75 g/ha", "setting": "[5]; Chenopodium album, post-emergence, 336 h, Table 4, 8.75 g ai/ha, read-out: Visual Growth Reduction (%)-14 Days after Application CHEAL", "value": 90, "unit": "%"}, {"measurement": "pest or weed control at 17.5 g/ha", "setting": "[5]; Chenopodium album, post-emergence, 336 h, Table 4, 17.5 g ai/ha, read-out: Visual Growth Reduction (%)-14 Days after Application CHEAL", "value": 100, "unit": "%"}, {"measurement": "pest or weed control at 35 g/ha", "setting": "[5]; Chenopodium album, post-emergence, 336 h, Table 4, 35 g ai/ha, read-out: Visual Growth Reduction (%)-14 Days after Application CHEAL", "value": 100, "unit": "%"}, {"measurement": "pest or weed control at 70 g/ha", "setting": "[5]; Chenopodium album, post-emergence, 336 h, Table 4, 70 g ai/ha, read-out: Visual Growth Reduction (%)-14 Days after Application CHEAL", "value": 100, "unit": "%"}, {"measurement": "Visual Growth Reduction (%)-14 Days after Application CHEAL", "setting": "[5]; Table 4, 140 g ai/ha", "value": 100, "unit": "%"}, {"measurement": "GR20 CHEAL", "setting": "[5]; [8]", "value": "<8.75", "unit": "g ai/ha"}, {"measurement": "GR50 CHEAL", "setting": "[5]; [9]", "value": "<8.75", "unit": "g ai/ha"}, {"measurement": "GR80 CHEAL", "setting": "[5]; [10]", "value": "<8.75", "unit": "g ai/ha"}, {"measurement": "pest or weed control at 140 g/ha", "setting": "[6]", "value": 100, "unit": "%"}, {"measurement": "GR20 ZEAMX", "setting": "[7]; [8]", "value": "<8.75", "unit": "g ai/ha"}, {"measurement": "GR50 ZEAMX", "setting": "[7]; [9]", "value": 12.4, "unit": "g ai/ha"}, {"measurement": "GR80 ZEAMX", "setting": "[7]; [10]", "value": ">140", "unit": "g ai/ha"}, {"measurement": "pest or weed control at 140 g/ha", "setting": "[7]; Zea mays, post-emergence, 336 h, Table 3, 140 g ai/ha, read-out: Visual Growth Reduction (%)-14 Days after Application ZEAMX", "value": 65, "unit": "%"}, {"measurement": "pest or weed control at 8.75 g/ha", "setting": "[7]; Zea mays, post-emergence, 336 h, Table 4, 8.75 g ai/ha, read-out: Visual Growth Reduction (%)-14 Days after Application ZEAMX", "value": 50, "unit": "%"}, {"measurement": "pest or weed control at 17.5 g/ha", "setting": "[7]; Zea mays, post-emergence, 336 h, Table 4, 17.5 g ai/ha, read-out: Visual Growth Reduction (%)-14 Days after Application ZEAMX", "value": 50, "unit": "%"}, {"measurement": "pest or weed control at 35 g/ha", "setting": "[7]; Zea mays, post-emergence, 336 h, Table 4, 35 g ai/ha, read-out: Visual Growth Reduction (%)-14 Days after Application ZEAMX", "value": 55, "unit": "%"}, {"measurement": "pest or weed control at 70 g/ha", "setting": "[7]; Zea mays, post-emergence, 336 h, Table 4, 70 g ai/ha, read-out: Visual Growth Reduction (%)-14 Days after Application ZEAMX", "value": 60, "unit": "%"}, {"measurement": "pest or weed control at 140 g/ha", "setting": "[7]; Zea mays, post-emergence, 336 h, Table 4, 140 g ai/ha, read-out: Visual Growth Reduction (%)-14 Days after Application ZEAMX", "value": 65, "unit": "%"}, {"measurement": "melting point", "value": "143 to 146", "unit": "°C"}]}]}
